No end group written: not given here. *: point of attachment. Biotin = O=C1N[C@H]2[C@H](CS[C@H]2CCCCC(=O)*)N1
Experiments:
[1] = tested on: bilabeled fluorescent probe sequence; conditions: human EBV-transformed B lymphoid cell line, biotinylated W6/32, streptavidin bridge
Protocol: Following incubation of cells (10^6/ml) with a biotin conjugate of primary antibody pan-specific for human Class I (W6/32) and washing in phosphate-buffered saline (pH 7.2; PBS), the cell preparation was treated with a large excess of unmodified tetravalent streptavidin (Sigma; 10 μl each of 100 μM streptavidin per 100 μl of cells at 10^6/ml) for 30 minutes at room temperature, and rewashed in PBS.
Following this, a biotinylated template oligonucleotide was added, such that its terminal biotin group becomes bound to free sites on the surface streptavidin. […] The DNA template sequence used in this example corresponds to a transcribed segment of human papillomavirus (HPV), of sequence: 5′-Biotin-[sequence] […] As a control, a scrambled version of this sequence was used: 5′ Biotin-[sequence]

trastuzumab [2] = experiment: ELISA of biotinylated mimotope peptides on streptavidin plates titrated with trastuzumab; assay type: binding; conditions: 400 nM biotinylated peptide coating, trastuzumab 2-fold serial dilutions
Protocol: For intact mimotopes and their analogs, peptides with an N-terminal biotin label and a flexible spacer composed of serine and glycine residues (typically […]; SEQ ID NO:110) were used.
ELISA plates coated with tetravalent streptavidin were obtained for the assay, either from a commercial source (such as Thermofisher) or made by incubating polystyrene 96-well ELISA plates with solutions of streptavidin in PBS (1 μM) 16 hours/4° C., followed by blocking with a solution of bovine serum albumin (BSA) at 10 mg/ml in PBS pH 7.2, also for 16 hours/4° C. Plates were then emptied of solutions and washed three times with 100 μl PBS containing 0.05% Tween 20 (PBS-Tw20).
A suitable dilution series of the biotinylated peptides of interest was prepared in PBS, and at least duplicates (or higher numbers of replicates) were added to pre-designated wells in 100 μl volumes, and the plate incubated for 2 hours at room temperature (covered in Saran wrap). […] After a 30 minute incubation, reactions were stopped with 1 M sulfuric acid, and results assessed with an automated plate reader for absorbances at 450 nm. Final data was compiled from averaged replicates for each determination with subtraction of absorbances observed in wells where no target peptide antigen was added. […]

trastuzumab [3] = experiment: Flow analysis of trastuzumab mimotope placed on HER-2-negative MU89 cells via streptavidin bridge; assay type: cell-based; conditions: MU89 melanoma cells, W6/32 biotinylated primary antibody, fluoresceinated goat anti-kappa read-out
Source text: In common with Example 11, for the repurposing of an antibody epitope by placement of a peptide mimotope on a cell surface, a surface marker for the cell type of interest was defined. […] The complex (biotinylated template-streptavidin-primary antibody) was then assembled on MU89 surface. Following that procedure and washing, biotinylated mimotope (Biotin-[…] ELWELSH; SEQ ID NO:35) was allowed to bind to the surface streptavidin. […] Subsequently, since trastuzumab is a humanized antibody with kappa light chains, a fluoresceinated goat anti-kappa antibody served to provide the final fluorescent read-out enabling flow analysis. […] However, it should be noted that while an amplification effect for fluorescent signal results from the multi-layered sandwich technique of this approach, the overall signal is ultimately linked to the level of expression of the primary antibody target.

trastuzumab [4] = conditions: L1 Q substitution; cited from earlier work
[5] = tested on: biotinylated anti-BRD7 Fab (bFab); experiment: Direct Binding Assay using streptavidin magnetic beads, denaturing gel read-out; set-up: species or system murine; conditions: with vs without bFab, PBSM
Protocol: Aptamers were incubated with bFab (2.5-fold molar excess), then bound to SAMBs. Supernatants were taken, and the SAMBs washed 3 times. Bound material was eluted with 0.1 M NaOH, and then precipitated, washed, dried, and reconstituted before loading samples on a denaturing acrylamide gel.
To assess binding of 10th-cycle singlet aptamers to the selective agent (the Fab target), direct binding assays were carried out. Here, single-stranded aptamer preparations (self-annealed as usual) were incubated with or without biotinylated Fab fragments in PBSM, followed by adsorption onto streptavidin magnetic beads. After this incubation period, the beads were magnetically separated, and the supernatants retained. […]
Despite successful in situ assembly of binary aptamers upon the target to which they were bound (as in Example 1), it could not be assumed that binary aptamers formed in solution would be capable of binding the same targets. This was assessed using the same aptamers as used in direct binding tests (Example 3; 228/10AptR1 and 229/10AptL3), but where the aptamers were initially ligated together by means of the same splint oligonucleotide as used in Example 1. […]

Molecule: 5′ Biotin-TAGCGCAAATAAGCCGCCAGAAC GATGATATAAACAGCATTAGGTAAGCTACAACA [control scrambled sequence, reference compound]
- fluorescence signal of bilabeled probe hybridized to surface template [1]: not

Molecule: 5′-Biotin-TAACTGTCAAAAGCCACTGTGTC CTGAAGAAAAGCAAAGACATCTGGACAAAAAGC
- fluorescence signal of bilabeled probe hybridized to surface template [1]: significant signal

Molecule: Bio-SGGGSGGGQLGPYELWEL CH (Biotin-SGGGSGGGQLGPYELWELCH) [cysteine-modified mimotope]
- recognition by Trastuzumab compared with the unmodified mimotope (trastuzumab [2]): almost the same extent
- slope of trastuzumab titration curve, less than that seen for the unmodified peptide (trastuzumab [2]): approximately 10%

Molecule: Bio-SGGGSGGGQLGPYELWELSH (Biotin-SGGGSGGGQLGPYELWELSH) [unmodified mimotope]
- fluorescent signal from trastuzumab (trastuzumab [3]): clear-cut fluorescent signal

Molecule: QLGPYEL WELSH (QLGPYELWELSH; segment of the mimotope) [mimotope for trastuzumab]
- binding affinity relative to the initial mimotope LLGPYELWEL SH (trastuzumab [4]): higher binding affinity

B1: GCAAAGACATCTGGACA CGCCACTTATAGTCTACGTGAAGCACTGCGCTGGAACAGCCTAAAAAAGGAGAAGG AGACTTAGAGGC (nucleic acid)
DNA: GCAAAGACATCTGGACACGCCACTTATAGTCTACGTGAAGCACTGCGCTGGAACAGCCTAAAAAAGGAGAAGGAGACTTAGAGGC
modifications: chemistry not given here
- binding to biotinylated Fab (bound material eluted from streptavidin magnetic beads) [5]: not

— patent US20200247851A1, “Methods For Generating Epitopes For Binding To Recognition Molecules By Templated Assembly” (TriBiotica LLC, priority 2017, published 2020)
